Series [1] concerns TGFβ signaling. The series is described as follows: Lymphocyte responses to TGFβ (Smad phosphorylation and others). It is filed as cell-based, mouse. The conditions noted are these: low dose HF; 10 μM SB-431542. As to the method: FIG. 8. […] FIG. 8A is a set of FACS analyses of CD4^+ CD25^− T cells activated in Th1 or Th2 polarizing conditions, either in the presence or absence of TGFβ. DMSO, 10 nM HF, 10 nM MAZ1310, or 10 μM SB-431542 added as indicated at the time of activation. Intracellular cytokine staining was performed on expanded T cells on day 5.
FIG. 8B is a set of FACS analyses of CD8^+ T cells activated in the presence or absence of TGFβ and cultured with DMSO, 10 nM HF, 10 nM MAZ1310, or 10 μM SB-431542. Expanded cells were restimulated on day 5 and intracellular staining was performed.
FIG. 8C is a set of FACS analyses of CFSE-labeled B cells activated by LPS stimulation in the presence or absence of TGFβ plus DMSO, 10 nM HF, 10 nM MAZ1310, or 10 μM SB-431542. Intracellular IL-6 production in B cells restimulated with PMA plus ionomycin, or cell-surface IgA expression was determined 4 days after activation.
FIG. 8D depicts western blot analyses of purified CD4^+ CD25^− T cells treated with DMSO, 40 nM MAZ1310, titrating concentrations of HF (2.5-40 nM) or 10 μM SB-431542 for 30 minutes in complete medium supplemented with 0.1% fetal calf serum. T cells were then activated in the presence or absence of 3 ng/ml TGFβ. Whole cell extracts were prepared after 1 hour of stimulation and western blot analyses were performed using the indicated antibodies. […]

The target in series [2] is T1, prolyl tRNA synthetase (Oryctolagus cuniculus, UniProt G1T2I4).
T1 construct: from tissue; host or cells: rabbit reticulocyte lysate (RRL)
The series is described as follows: tRNA charging in RRL (14C Pro or 35S Met incorporation into tRNA). It is filed as biochemical, rabbit. Here is the method: FIG. 23D is a graph showing that HF inhibits prolyl tRNA synthetase activity in RRL. ^14C Pro or ^35S Met were incubated with RRL and total bovine tRNA in the presence or absence of HF or MAZ1310, and incorporation of radioactivity into tRNA was measured by liquid scintillation counting. Error bars reflect standard deviation of triplicate determinations. Data are representative of two separate experiments.
The effects of HF on prolyl-tRNA charging was examined. RRL were supplemented with ^14C-Pro or ^35S-Met in the presence or absence of HF, and total tRNA was isolated (FIG. 23D).

The test system of series [3] is mTOR pathway. Briefly: mTOR pathway signaling in fibroblasts. The conditions noted are these: 100 nM HF. It is filed as cell-based, mouse. Here is the method:
FIG. 25. […] MEFs growing in DME/10% FCS were treated with 100 nM HF or 0.5 μM Rapamycin and analyzed by Western blot for phosphorylation of component of the mTor signaling pathway. Lane 1: 100 nM MAZ1310 1 hr; Lane 2: 100 nM HF 8 hr; Lane 3: 100 nM HF 4 hr; Lane 4: 100 nM HF 2 hr; Lane 5: 100 nM HF 1 hr; Lane 6: 0.5 μM Rapamycin 1 hr.

The format of series [4] is in vitro ADME. As to conditions: mouse, 2 h, 20 nM. As to the method: MEFs were incubated with the indicated concentration of HF in the presence or absence of 2 mM proline for 2 hours and then lysed. Lysates were then tested for HF levels in comparison to a standard curve using known concentrations of HF with an anti-HF antibody based ELISA assay (see Example 9, “Materials and Methods”). Error bars reflect standard deviation of triplicate determinations. Similar results were obtained in three separate experiments.
Polyclonal anti-HF antibody was raised by immunizing rabbits with KLH coupled to an HF derivative (MAZ1356) containing a linker attached to the quinazolinone and terminated by a primary amino group. Crude antibody was affinity purified using MAZ1356 linked to NHS-agarose. For the ELISA assay, MAZ1356 was coupled to 96-well Reacti-bind Plates (Pierce). After binding, plates were blocked with 10% goat serum in PBS/0.2% Tween-20 (PBST). […] Captured antibody was quantitated using TMB based colorimetric detection (Pierce), and a standard curve for HF concentration fitted from the colorimetric data. […] To determine HF concentration in cells, 8 μl of cleared lysate (or control buffer) was incubated with anti-HF antibody in MAZ1356 bound wells, and captured antibody detected and quantitated as described above. HF concentration was then determined by fitting colorimetry results with cell samples to a standard curve of HF concentration. […]

Series [5] has as its system EAE and CIA. As to conditions: mouse, in vivo; cited from earlier work.

“Also recorded” adds a separate entry of the source.

The source of these data is patent US20120058133A1, “INHIBITION OF TRNA SYNTHETASES AND THERAPEUTIC APPLICATIONS THEREOF” (President and Fellows of Harvard College, priority 2009, published 2012).

T1 sequence (G1T2I4 1-1447): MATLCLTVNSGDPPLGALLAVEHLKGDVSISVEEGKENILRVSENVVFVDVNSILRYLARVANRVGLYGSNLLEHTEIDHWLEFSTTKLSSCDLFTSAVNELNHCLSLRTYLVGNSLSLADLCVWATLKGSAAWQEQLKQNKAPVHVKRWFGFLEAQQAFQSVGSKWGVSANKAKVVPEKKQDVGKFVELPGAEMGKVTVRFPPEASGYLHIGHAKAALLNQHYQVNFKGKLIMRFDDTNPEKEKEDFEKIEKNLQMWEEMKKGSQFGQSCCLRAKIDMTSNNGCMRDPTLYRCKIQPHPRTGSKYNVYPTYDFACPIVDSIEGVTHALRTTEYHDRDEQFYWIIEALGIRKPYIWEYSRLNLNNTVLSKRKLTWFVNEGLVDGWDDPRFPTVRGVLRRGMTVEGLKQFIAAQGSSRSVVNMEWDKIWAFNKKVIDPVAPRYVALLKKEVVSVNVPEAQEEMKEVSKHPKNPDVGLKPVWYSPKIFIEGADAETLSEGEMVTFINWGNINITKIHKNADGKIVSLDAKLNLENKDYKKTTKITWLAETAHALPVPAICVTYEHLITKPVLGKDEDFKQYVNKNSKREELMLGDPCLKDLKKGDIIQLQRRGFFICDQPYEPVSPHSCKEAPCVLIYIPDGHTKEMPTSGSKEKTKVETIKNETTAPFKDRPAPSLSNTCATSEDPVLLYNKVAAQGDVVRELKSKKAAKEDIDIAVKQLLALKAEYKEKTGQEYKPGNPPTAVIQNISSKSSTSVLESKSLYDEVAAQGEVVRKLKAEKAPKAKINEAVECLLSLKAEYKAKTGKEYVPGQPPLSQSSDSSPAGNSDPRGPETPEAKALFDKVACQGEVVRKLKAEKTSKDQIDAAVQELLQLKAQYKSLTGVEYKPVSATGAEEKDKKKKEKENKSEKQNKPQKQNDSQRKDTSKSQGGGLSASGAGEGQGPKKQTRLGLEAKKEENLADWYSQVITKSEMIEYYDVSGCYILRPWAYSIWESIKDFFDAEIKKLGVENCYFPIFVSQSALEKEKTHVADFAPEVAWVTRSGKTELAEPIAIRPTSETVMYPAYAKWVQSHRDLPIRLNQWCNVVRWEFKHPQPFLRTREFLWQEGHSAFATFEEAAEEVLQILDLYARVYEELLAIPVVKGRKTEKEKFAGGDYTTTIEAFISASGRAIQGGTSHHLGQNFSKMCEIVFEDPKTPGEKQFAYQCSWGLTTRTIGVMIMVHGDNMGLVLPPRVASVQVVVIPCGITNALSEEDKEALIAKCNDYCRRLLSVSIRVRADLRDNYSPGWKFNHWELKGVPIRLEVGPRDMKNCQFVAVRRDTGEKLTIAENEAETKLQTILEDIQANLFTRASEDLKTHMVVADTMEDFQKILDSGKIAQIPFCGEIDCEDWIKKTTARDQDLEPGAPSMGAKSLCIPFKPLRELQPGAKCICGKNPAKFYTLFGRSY

Regarding `O=C(CC1NCCCC1O)Cn1cnc2cc(Br)c(Cl)cc2c1=O` (racemic) [HF, halofuginone], the “TGFβ-induced Smad phosphorylation and other lymphocyte responses to TGFβ” value in series [1] is listed as “inhibited neither”. Besides, in series [2], the “incorporation of 14C-Pro into tRNA” value is reported as “inhibited”. Further, in series [3], the “signaling downstream of mTOR” value was “does not directly inhibit downstream targets of the mTOR pathway; also recorded: did not inhibit signaling downstream of mTOR; also recorded: without concomitant inhibition of mTOR signaling”. Also, the “absolute HF concentration inside cells” value in series [4] is given as around 800 nM. In series [5], the “activity in EAE and CIA models” value is recorded as “active in these models”.
